Test system: rat adipocytes
Experiment: Activation of lipogenesis in rat adipocytes
Type: cell-based
Conditions: insulin 1 nM; twenty independent lipogenesis assays
Method: This was carried out on adipocytes isolated from the epididymal fat pads of young rats. Briefly adipocytes from two rat epididymial fat pads were suspended in 8 ml of Krebs Ringer bicarbonate and 250 μL of the cell suspension was incubated at 37° C. for two hours in Krebs Ringer bicarbonate, containing 1% albumin and 5 mM [U-^14C]-glucose (1 μCi/sample) with or without insulin (1 nM) or 10 μL of IPG solutions. The rate of incorporation of uniformly labelled glucose into fatty acids was used as a measure of lipogenesis.

Insulin
Lipogenesis (lipogenic activity): 5160 ± 310 (n-20) milliunits/g liver

Reference: patent US20010039027A1, “Cyclitol containing carbohydrates from human tissue which regulate lipogenic activity” (priority 1996, published 2001)
